Test results from patent US20250090576A1, “METHODS FOR TREATING NONTUBERCULOUS MYCOBACTERIA DISEASES” (Microbion Corporation, priority 2022, published 2025).
Converted amounts (≈) assume the structure as drawn.

Experiments:
Format in all cases: cell-based
[1] = tested on: M. avium strain 104 (MAH 104) in THP-1 macrophages; experiment: Mycobacterial survival (CFU) in infected THP-1 macrophages; conditions: 4-day and 7-day, drugs at MIC
Experimental: THP-1 macrophages were differentiated with 50 ng/ml PMA for 24 hours, followed by 24 hours in media prior to infection. Differentiated THP-1 macrophages were either infected with M. avium strains or M. abscessus strains for 1 hour with an multiplicity of infection (MOI) of 5 or uninfected. Cells were washed twice, followed by 1 hour of antibiotic treatment with 200 μg/ml of amikacin to remove extracellular bacteria. After the antibiotic step, cells were washed once more and BisEDT (BIZ) or amikacin was added once to selected wells (see in vitro doses below).
The treatments included: vehicle, amikacin, Soluble BisEDT (S Biz), Insoluble BisEDT (I Biz), and amikacin+BisEDT. The time points for sample preparation were 72 h for M. abscessus strains and 4- and 7-days post infection for M. avium strains. At the indicated timepoints cell media was removed and replaced with 400 ul of 0.1% triton x-100 in H2O for lysis. Wells were pipetted 25 times to disrupt cells then diluted and plated for CFU enumeration.

[2] = tested on: M. abscessus MABS4 biofilm; experiment: MBEC assay (minimum biofilm eradication concentration); conditions: 18 h challenge
Text: (§1) In this study the MBEC assay was followed as described in the Innovotech Procedural Manual, version 2.1 with minor modifications to assess the antibiofilm activity of the antimicrobial compounds under investigation. The MBEC value refers to the Minimum Biofilm Eradication Concentration of each antimicrobial for each strain. The MBEC value is defined as the minimum antibiotic concentration where the optical density (OD) value at recovery is less than 10% of the control OD value and there is no growth observed with visual examination of the wells.
(§2) Step 1: Inoculation. For resuscitation, all strains were streaked on TSA plates, except for the mycobacteria which were streaked on 7H10 media, from the frozen stocks, and grew overnight at 37° C. (Table 6). From the plate, one colony was picked for inoculation in organism specific medium (OSM) and grown in a shaker incubator at 37° C. at 225 RPM until mid-log phase (OD 0.2-0.8). At mid log phase the culture was diluted in OSM medium (Table 6) to an OD of 0.05. 150 μL of it were aliquoted in each corresponding well in a 96-well MBEC plate (inoculation plate). Subsequently, the MBEC plates were incubated static at 37° C. for the appropriate time for each species (Table 7). During incubation, biofilm formed on the pegs.
(§3) Step 2: Challenge. Following incubation, the peg lid with the biofilm was washed twice in PBS and placed on a second 96-well plate with 200 μl of antibiotic dilutions (challenge plate). The challenge plate was then incubated at 37° C. for 18 h to allow exposure of the biofilm to antibiotics.
(§4) Step 3: Recovery. In the final step, the peg lid (with the biofilm after treatment with the antibiotics) was washed again twice in PBS and placed on a third 96-well plate (recovery plate) with 200 μl growth medium in each well to allow growth of any bacterial cells resistant to antibiotics at any concentration. The recovery of resistant cells was assessed by an end-point measurement of the optical density at 600 nm (OD600) for each well with a plate reader (FIG. 4).

[3] = tested on: M. abscessus MABS7 biofilm; experiment: as above; conditions: 18 h challenge
Text: as §1, §2, §3, §4

[4] = tested on: M. abscessus MABS9 biofilm; experiment: as above; conditions: 18 h challenge
Text: as §1, §2, §3, §4

[5] = tested on: M. abscessus MABS1 biofilm; experiment: as above; conditions: 18 h challenge
Text: as §1, §2, §3, §4

[6] = tested on: M. abscessus MABS11 biofilm; experiment: as above; conditions: 18 h challenge
Text: as §1, §2, §3, §4

[7] = tested on: M. abscessus MABS2 biofilm; experiment: as above; conditions: 18 h challenge
Text: as §1, §2, §3, §4

M. abscessus MABS2 = experiment: MIC (Table 8); conditions: Mycobacteroides abscessus
M. abscessus MABS9 = experiment: MIC (Table 8); conditions: Mycobacteroides abscessus
M. abscessus MABS11 = experiment: MIC (Table 8); conditions: Mycobacteroides abscessus
M. abscessus MABS4 = experiment: MIC (Table 8); conditions: Mycobacteroides abscessus
[8] = tested on: M. abscessus biofilm (six clinical isolates); experiment: MBEC assay, summary over six clinical isolates; conditions: at high concentrations (amikacin, clarithromycin: apart from MABS4)
Text: as §1, §2, §3
Step 3: Recovery. […] The recovery of resistant cells was assessed by an end-point measurement of the optical density at 600 nm (OD600) for each well with a plate reader (FIG. 4).
This is possibly, in part, due to the variable clumping of the cells observed in the biofilm biomass on the pegs. The clumping of the cells also impacted the OD readings. […] For replicate experiments with variable results, the final MBEC values were determined based on the higher MBEC concentration observed among the replicates.

M. abscessus MABS1 = experiment: MIC (Table 8); conditions: Mycobacteroides abscessus
M. abscessus MABS7 = experiment: MIC (Table 8); conditions: Mycobacteroides abscessus

MIC (M. abscessus MABS2)	MIC (M. abscessus MABS9)	MIC (M. abscessus MABS11)	MIC (M. abscessus MABS4)	MIC (M. abscessus MABS1)	MIC (M. abscessus MABS7)	SMILES	mycobacterial survival (CFU, bacterial load) in THP-1 macrophages, in words [1]	MBEC [2]	MBEC ([2]; listed as clarithromycin)	MBEC [3]	MBEC [4]	MBEC [5]	MBEC [6]	MBEC [7]	biofilm susceptibility, in words [8]
–	–	–	–	–	–	C1C[S][Bi]([S]CC[S][Bi]2[S]CC[S]2)[S]1 [BisEDT in DMSO]	bacteriostatic effect	–	–	–	–	–	–	–	–
1 µg/mL (≈ 3.34 µM)	16 µg/mL (≈ 53.4 µM)	8 µg/mL (≈ 26.7 µM)	8 µg/mL (≈ 26.7 µM)	8 µg/mL (≈ 26.7 µM)	16 µg/mL (≈ 53.4 µM)	C[C@@H](O)[C@H]1C(=O)N2C(C(=O)O)=C(SCCN=CN)C[C@H]12 [Imipenem]	–	>64 µg/mL	–	>64 µg/mL	>64 µg/mL	>32 µg/mL	>64 µg/mL	>16 µg/mL	–
8 µg/mL (≈ 18.7 µM)	32 µg/mL (≈ 74.9 µM)	16 µg/mL (≈ 37.4 µM)	16 µg/mL (≈ 37.4 µM)	8 µg/mL (≈ 18.7 µM)	16 µg/mL (≈ 37.4 µM)	CO[C@@]1(NC(=O)Cc2cccs2)C(=O)N2C(C(=O)O)=C(COC(N)=O)CS[C@@H]21 [Cefoxitin]	–	>128 µg/mL	–	>128 µg/mL	>256 µg/mL	>128 µg/mL	>256 µg/mL	>128 µg/mL	resistance

SMILES	MIC (M. abscessus MABS2)	MIC (M. abscessus MABS9)	MIC (M. abscessus MABS11)	MIC (M. abscessus MABS4)	MIC (M. abscessus MABS1)	MIC (M. abscessus MABS7)	mycobacterial survival (CFU, bacterial load) in THP-1 macrophages, in words [1]	MBEC [2]	MBEC ([2]; listed as clarithromycin)	MBEC [3]	MBEC [4]	MBEC [5]	MBEC [6]	MBEC [7]	biofilm susceptibility, in words [8]
CC[C@H]1OC(=O)[C@H](C)[C@@H](O[C@H]2C[C@@](C)(OC)[C@@H](O)[C@H](C)O2)[C@H](C)[C@@H](O[C@@H]2O[C@H](C)C[C@H](N(C)C)[C@H]2O)[C@](C)(OC)C[C@@H](C)C(=O)[C@H](C)[C@@H](O)[C@]1(C)O [Clarithromycin]	4 µg/mL (≈ 5.35 µM)	0.25 µg/mL (≈ 0.334 µM)	2 µg/mL (≈ 2.67 µM)	0.125 µg/mL (≈ 0.167 µM)	16 µg/mL (≈ 21.4 µM)	0.5 µg/mL (≈ 0.668 µM)	–	<=4 μg/mL	4 µg/mL	>8 µg/mL	>8 µg/mL	>32 µg/mL	>=32 μg/mL	>32 µg/mL	resistance
